The results in this text go back to patent US6344219B1, “Chinese drug composition for treatment of peptic ulcer and preparation thereof” (priority 1995, dated 2002).

In experiment [1] the test system is stress ulcer of rats induced by water soaking. Description: Effect to stress ulcer (Takagi's method, water soaking). It is filed as in vivo, Rats(SD). As to conditions: 100 mg/kg qd × 2. On the procedure: The model was established following Takagi's method. Takagi, et al., The Effects of Drugs on the production and Recovery Processes of the Stress Ulcer, 18:9-18 (1968); and Takagi et al., A New Method For The Production of Chronic Gastric Ulcer in Rats and The Effect of Several Drugs on its Healing, Japan J. Pharmacol Japan J. Pharmacol 19:418-426 (1969). Fifty rats, 159+13 g, male and female half and half, were randomly divided into five groups according to sex and weight and were administered with drugs daily twice, once both in the morning and afternoon for two days. From the beginning of the experiments, food was abstained but water was freely fed. One hour after the last administration, rats were bound on a board and were soaked in a thermostatic flowing water bath at […] for 18 hr then were executed by decapitation. Take out the stomach by abdominal section and ligate the pylorus first then inject 10 ml of 1% formaldehyde solution through cardia of stomach and ligate the cardia. After formalizing the stomach in 1% formaldehyde solution for 10 min, the stomach was cut along the greater curvature with scissor, rinse with normal saline solution for three times and absorb with filter paper, then flatten it on a glass plate and examine the degree of mucosa ulcer and count the number using magnifier. […]

Experiment [2] has as its system pyloric ligation ulcer. Description: Effect to the ulcer of pyloric ligation (Shay's method). As to conditions: rats; dose 200. The experiment is classed as in vivo, Rats(SD). Here is the method: The experiment is conducted following Shay's method. Fifty rats, 190+20 g, male and female half and half, were randomly divided into five groups according to weight and sex and were administered as 1-1 for three days. Food was abstained but water was freely fed before 48 hr of the operation. After 2 hr of the last administration, operation of pyloric ligation was conducted then both food and water were abstained. After 48 hr the rats were executed and their gastric juice was collected for measuring the volume, and determining the free acid, total acid and pepsin following Metle's method.

For experiment [3], the system named is chronic gastric ulcer caused by acetic acid burn. Put plainly: Chronic gastric ulcer of rats caused by acetic acid burn (adapted Takagi's method). The experiment is classed as in vivo, Rats(SD). Conditions: 200 mg/kg × 12 day ig qd. On the procedure:
The experiment was conducted using adapted Takagi's method. Fifty rats, 165+15 g, male and female half and half, after abstaining food without abstaining water for 24 hr, were primary anesthetized with ether and their skin were sterilized as regular method. After abdominal section the stomach was gently pulled out. A small glass tube with 0.5 cm inner diameter and 3 cm length was inserted into the stomach near the lesser curvature stomach gland of pylorus using middle finger to resist against the opposite stomach wall. 0.1 ml acetic acid was injected into stomach through the glass tube. After 30 sec counting with stopwatch, acetic acid was sucked out and the stomach was rinsed with sterilized normal saline for three times. Remove out the glass tube and absorb the normal saline on its external surface with sterilized filter paper the stomach was put into the abdomen then sew up the wound and sterilize. The rats was randomly divided into 5 groups according to sex and weight on the second day of operation. The rats were administered with drug ig qd×12 day, after abstaining food overnight then were executed by decapitation. The ulcer volumes were measured using the method of injection ink with a micro syringe.

Experiment [4] relates to gastric ulcer induced by Reserpine. Put plainly: Gastric ulcer of rats induced by Reserpine. The experiment is classed as in vivo, Rats(SD). Conditions: 200.0 mg/kg ig once daily for three days, Reserpine 5 mg/kg sc. Here is the method:
Fifty rats, 180±18 g, male and female half and half, were divided into five groups and were treated with drug ig once daily for three days. After abstaining food for 24 hr Reserpine 5 mg/kg was injected subcutaneously. The rats were executed by decapitation after 18 hr and the gastric ulcer was examined as the same method of 1-1.

For experiment [5], the system named is ulcer induced by Histamine. Description: Ulcer of mice induced by Histamine. It is filed as in vivo, Mice(ICR). As to conditions: 200 mg/kg bid × 2 ig, Histamine 80 mg/kg ip. On the procedure:
Forty mice, male 23±2 g, were divided into five groups, and were administrated once both in the morning and afternoon of everyday by ig. Mice were abstained to feed food for 24 hr except water, then administered Histamine 80 mg/kg, ip, after abstaining food for 8 hr were executed. Take out the stomachs and examine ulcer index using the same method as 1-1.

In the case of `CNC(=C[N+](=O)[O-])NCCSCc1ccc(CN(C)C)o1.Cl` [Ranitidine, Ranitidine hydrochloride], the “rate of inhibition (%)” value in experiment [1] is given as 41.5%; in experiment [3], 50.7%; in experiment [4] it was 78.2%; in experiment [5], 87.8%. In addition, the “ulcer index (x ± SD)” value in experiment [1] amounted to 2.14 ± 0.46; in experiment [4], 7.6 ± 2.0; in experiment [5], 1.4 ± 3.5. Further, the “ulcer index” value in experiment [2] came out at 1.22 ± 1.44. The “ulcer volume (μl, × ± SD)” value in experiment [3] was 1.72 ± 1.46 µL.
